Legend:
Type in all cases: cell-based, human
[1] = tested on: U2OS cells stably expressing CALR-GFP; assay: CALR-GFP granularity (surrogate marker of CALR exposure); details: lurbinectedin 1 nM to 1 μM, MTX 1 and 3 μM, 4-32 hours, vs untreated controls
Experimental: (§1) (a) Human osteosarcoma U2OS (a), human breast cancer HCC70 (b) human colon cancer HT29 cells (c) and murine methylcholantrene-induced fibrosarcoma MCA205 cells (d) were treated with lurbinectedin (Lurbi, 1 nM, 10 nM, 100 nM and 1 μM) for the indicated times. Subsequently, the cells were stained with 1 μM Hoechst 33342 and 1 μM propidium iodide and assessed for the loss of viability by automated image acquisition. Images were segmented, cellular debris was excluded and the number of cells with normal nuclear morphology was enumerated. Cells stably expressing CALR-GFP were treated as above. Following the cells were fixed with 3.7% of PFA, stained with 1 μM Hoechst 33342 and assessed by automated image acquisition. Images were segmented, cellular debris was excluded and CALR-GFP granularity (a surrogate marker of CALR exposure) was evaluated in the cytoplasmic region of cells with normal nuclear morphology. Wild type cells were treated as above and then assessed for cytoplasmic quinacrine granularity (after staining with the ATP-sensitive dye quinacrine together with Hoechst 33342) by automated image acquisition, segmentation and analysis. Cells stably expressing HMGB1-GFP were treated as above and then assessed for nuclear HMGB1-GFP fluorescence intensity. The cells were fixed and stained with Hoechst 33342 and images were acquired, segmented and analyzed. […]

U2OS WT cells = assay: Cytoplasmic quinacrine granularity (intracellular ATP, indicator of ATP release); details: lurbinectedin 1 nM to 1 μM, MTX 1 and 3 μM, dose-dependent, decreased over time, vs untreated controls
Experimental: as §1

[2] = tested on: U2OS cells stably expressing HMGB1-GFP; assay: HMGB1 release (loss of nuclear HMGB1-GFP fluorescence); details: lurbinectedin 1 nM to 1 μM, MTX 1 and 3 μM, medium to late time points
Experimental: as §1

[3] = tested on: U2OS biosensor cells expressing GFP under the MX1 promoter; assay: Type I IFN response (MX1-GFP biosensor cells treated with supernatant); details: supernatant of treated U2OS cells after 48 hours fresh media; biosensor cells 48 hours; throughout all time points
Experimental: In a systematic screening campaign, the capacity of lurbinectedin to induce immunogenic cell death in cancer cells was assessed in human osteosarcoma U2OS cells stably expressing fluorescent biosensors for the detection of CALR-relocation (as a surrogate marker for CALR surface exposure), HMGB1 release and Type I IFN responses together with U2OS WT cells stained with the ATP-sensitive dye quinacrine. […] The induction of cell death was evaluated based on changes in the nuclear morphology visualized by means of the DNA intercalating dye Hoechst 33342.

## O=C1c2c(O)ccc(O)c2C(=O)c2c(NCCNCCO)ccc(NCCNCCO)c21 [MTX, mitoxantrone]
[1]
  CALR-granularity: time- and dose-dependent increase
U2OS WT cells
  ATP signal (cytoplasmic quinacrine granularity): significant decrease
[2]
  nuclear GFP signal (HMGB1-GFP): significant decrease
[3]
  de novo GFP signal intensity (type 1 IFN response): significant increase

Reference: patent US20250295656A1, “COMBINATION OF LURBINECTEDIN AND IMMUNE CHECKPOINT INHIBITORS” (priority 2020, published 2025)
